Assay results published in publication PMC8536414, “The LC-MS/MS-Based Measurement of Isopimaric Acid in Rat Plasma and Application of Pharmacokinetics” (BioMed Research International, 2021).
Like-named read-outs stand apart in the source and are kept apart here.

How the values were obtained:
[1] = Pharmacokinetic study of IPA in rats after i.v. or oral administration (LC-MS/MS of plasma, noncompartmental analysis); assay type: in vivo, Sprague-Dawley rats; conditions: for AUC(0-inf) / MRT / half-life / AUC(0-t) / bioavailability / CL/F / Tmax / T max1: rat; for AUC(0-t): read-out: AUC(0~24); for bioavailability: oral, read-out: absolute bioavailability; for Tmax: read-out: T max 2; for C max1 / C max2: rat plasma; for C max1: n = 5
Description: Male Sprague-Dawley rats (220-250 g) from Shanghai Slac Laboratory Animal Co., Ltd. (Shanghai, China) (2018(hu)-08-0013) were housed in a climate-controlled facility (22 ± 2°C, 46 ± 20% relative humidity, 12 h light/dark cycle) with unlimited food and water access. After a 7-day acclimatization period, 20 rats were randomly assigned to undergo the administration of IPA via p.o. administration (50, 100, or 200 mg/kg) or via i.v. injection (5 mg/kg) for pharmacokinetic analyses. All animal studies received approval from the Animal Ethics Committee of the Naval Military Medical University. After developing and validating the above LC-MS/MS approach, it was employed to assess the pharmacokinetics of IPA following its intravenous or oral administration to rats as per the approved protocols discussed above. Briefly, after acclimatization, rats were fasted for 12 h and then randomized to undergo treatment with a 5 mg/kg i.v. dose of IPA or with oral IPA doses of 50, 100, or 200 mg/kg (n = 5/group). All IPA solutions were prepared in physiological saline and thoroughly mixed with CMC-Na. Blood samples (~0.4 mL) from these rats were collected in heparinized tubes at 0, 0.083, 0.167, 0.25, 0.5, 0.75, 1, 2, 3, 4, 6, 8, and 12 h following i.v. injection or at 0.167, 0.333, 0.5, 0.75, 1,1.5, 2, 4, 6, 8, 12, and 24 h following oral administration. Blood samples were spun for 5 min at 1,500 × g, after which plasma was collected and stored at -20°C prior to analysis. Plasma IPA concentrations were determined using the calibration curve established above based on peak area ratios from individual injection samples. The mean residence time (MRT0-t), area under the blood concentration-time curve (AUC0-∞, AUC0-t), body clearance (CL/F), and elimination half-life (T1/2) were quantified with the DAS 3.2.6 program (Chinese Pharmacology Society) via a noncompartmental approach. Concentration-time curves were used to establish maximum concentration (Cmax) and time to maximum concentration (Tmax) values. Data are given as means ± standard deviation (S.D.). Absolute bioavailability (F %) was determined as follows: F% = AUC0 − ∞(p.o.) dose (i.v.)/AUC0 − ∞(i.v.) dose (p.o.) × 100%.

[2] = Stability of IPA in rat plasma QC samples under storage conditions; assay type: in vitro ADME; conditions: for stability in rat plasma (in words): three QC concentrations; for Postpreparative, Measured: processed plasma sample; for Postpreparative, Measured / Long-term, Measured / Short-term, Measured / Three freeze-thaw, Measured: n = 5; for Long-term, Measured / Short-term, Measured / Three freeze-thaw, Measured: rat plasma
Description: IPA stability was examined by evaluating five replicate samples at the three QC concentration levels in a range of storage conditions. […] Processed sample stability was measured by incubating them for 24 h in the room temperature autosampler. In addition, long-term stability was measured following a 30-day storage period at -20°C, and freeze-thaw stability was measured by cycling samples from -20°C to 20°C three times. When the assay values associated with these samples were within a ±15% deviation from the nominal value, samples were considered to be stable.

[3] = male, Sprague-Dawley, plasma, iv, i.v. 5 mg/kg
[4] = male, Sprague-Dawley, plasma, po, p.o. 50 mg/kg
[5] = male, Sprague-Dawley, plasma, po, p.o. 100 mg/kg
[6] = male, Sprague-Dawley, plasma, po, p.o. 200 mg/kg

Compound: C=C[C@@]1(C)CC[C@H]2C(=CC[C@@H]3[C@]2(C)CCC[C@@]3(C)C(=O)O)C1 [IPA, isopimaric acid]
- AUC(0-inf) [1, 3]: 818 ± 66.2 ng·h/mL
- MRT [1, 3]: 1.4 ± 0.4 h
- half-life [1, 3]: 6.6 ± 5.9 h
- AUC(0-t) [1, 3]: 745 ± 140 ng·h/mL
- bioavailability ([1]; male, Sprague-Dawley, plasma, p.o. 50 mg/kg vs i.v. 5 mg/kg): 11.9%
- bioavailability ([1]; male, Sprague-Dawley, plasma, p.o. 100 mg/kg vs i.v. 5 mg/kg): 17.5%
- AUC(0-inf) [1, 4]: 923 ± 614 ng·h/mL
- MRT [1, 4]: 9.3 ± 1.3 h
- half-life [1, 4]: 10.4 ± 9.8 h
- AUC(0-t) [1, 4]: 887 ± 636 ng·h/mL
- CL/F ([1]; male, Sprague-Dawley, plasma, po, p.o. 50 mg/kg, read-out: CL/F (converted)): 1170 mL/min/kg
- Tmax [1, 4]: 6.4 ± 2.6 h
- AUC(0-inf) [1, 5]: 2640 ± 1640 ng·h/mL
- MRT [1, 5]: 7.6 ± 1.3 h
- half-life [1, 5]: 5.5 ± 2.3 h
- AUC(0-t) [1, 5]: 2600 ± 1630 ng·h/mL
- CL/F ([1]; male, Sprague-Dawley, plasma, po, p.o. 100 mg/kg, read-out: CL/F (converted)): 983 mL/min/kg
- Tmax [1, 5]: 6 ± 1.4 h
- AUC(0-inf) [1, 6]: 3190 ± 1720 ng·h/mL
- MRT [1, 6]: 7.9 ± 0.5 h
- half-life [1, 6]: 3.6 ± 1 h
- AUC(0-t) [1, 6]: 3180 ± 1720 ng·h/mL
- CL/F ([1]; male, Sprague-Dawley, plasma, po, p.o. 200 mg/kg, read-out: CL/F (converted)): 1330 mL/min/kg
- Tmax [1, 6]: 8.8 ± 1.1 h
- C max1 ([1]; i.v. 5 mg/kg): 1740.1 ± 456.0 ng/mL
- C max2 ([1]; p.o. 50 mg/kg): 61.6 ± 46.2 ng/mL
- C max1 ([1]; p.o. 50 mg/kg): 83.7 ± 32.9 ng/mL
- C max2 ([1]; p.o. 100 mg/kg): 284.9 ± 183.4 ng/mL
- C max1 ([1]; p.o. 100 mg/kg): 296.4 ± 75.1 ng/mL
- C max2 ([1]; p.o. 200 mg/kg): 286.9 ± 217.2 ng/mL
- C max1 ([1]; p.o. 200 mg/kg): 246.23 ± 94.4 ng/mL
- CL/F ([1]; i.v. 5 mg/kg): 6.1 ± 0.5 L/h
- T max1 ([1]; i.v. 5 mg/kg): 0 ± 0 h
- T max1 ([1]; p.o. 50 mg/kg): 0.9 ± 0.1 h
- T max1 ([1]; p.o. 100 mg/kg): 0.6 ± 0.3 h
- T max1 ([1]; p.o. 200 mg/kg): 0.65 ± 0.1 h
- stability in rat plasma (in words) ([2]; 3 rounds of freeze-thawing): remained stable
- stability in rat plasma (in words) ([2]; 3 h room temperature incubation): remained stable
- stability in rat plasma (in words) ([2]; 30 days of storage at -20°C): remained stable
- Postpreparative, Measured ([2]; spiked 10 ng·mL^−1, 24 h room temperature autosampler): 9.56 ± 0.88 ng/mL
- Postpreparative, Measured ([2]; spiked 400 ng·mL^−1, 24 h room temperature autosampler): 371.2 ± 1.44 ng/mL
- Postpreparative, Measured ([2]; spiked 2000 ng·mL^−1, 24 h room temperature autosampler): 2012 ± 0.12 ng/mL
- Long-term, Measured ([2]; spiked 10 ng·mL^−1, 30 days at -20°C): 10.79 ± 1.46 ng/mL
- Short-term, Measured ([2]; spiked 10 ng·mL^−1, room temperature): 9.65 ± 0.07 ng/mL
- Three freeze-thaw, Measured ([2]; spiked 10 ng·mL^−1, three cycles -20°C to 20°C): 10.27 ± 0.56 ng/mL
- Long-term, Measured ([2]; spiked 400 ng·mL^−1, 30 days at -20°C): 363.5 ± 1.82 ng/mL
- Short-term, Measured ([2]; spiked 400 ng·mL^−1, room temperature): 407.0 ± 0.34 ng/mL
- Three freeze-thaw, Measured ([2]; spiked 400 ng·mL^−1, three cycles -20°C to 20°C): 421.8 ± 1.08 ng/mL
- Long-term, Measured ([2]; spiked 2000 ng·mL^−1, 30 days at -20°C): 1908.3 ± 0.92 ng/mL
- Short-term, Measured ([2]; spiked 2000 ng·mL^−1, room temperature): 1840 ± 1.6 ng/mL
- Three freeze-thaw, Measured ([2]; spiked 2000 ng·mL^−1, three cycles -20°C to 20°C): 1967 ± 0.34 ng/mL
- postpreparation stability (in words) ([2]; room temperature for 24 h in the autosampler): remained stable
